Experimental findings from ChEMBL document CHEMBL3853300, “Synthesis of α-santonin derived acetyl santonous acid triazole derivatives and their bioevaluation for T and B-cell proliferation” (Eur J Med Chem, 2016) are described below.

Data set [1] is described as follows: Immunosuppressive activity in Balb/c mouse T cells assessed as inhibition of ConA-induced cell proliferation at 10 uM after 48 hrs by MTT assay relative to control. The data set is classed as functional.
A short description of data set [2]: Immunostimulatory activity in Balb/c mouse B cells assessed as induction of LPS-induced cell proliferation at 1 uM after 48 hrs by MTT assay relative to control. The data set is classed as cell-based.
A further data set deals with T-cell. Put plainly: Immunosuppressive activity in Balb/c mouse T cells assessed as inhibition of ConA-induced cell proliferation after 48 hrs by MTT assay relative to control. The data set is classed as functional, cell-based.
For data set [3], the species on record is Mus musculus. In words: Cytotoxicity against Balb/c mouse B cells assessed as decrease in cell viability at 10 uM after 48 hrs by MTT assay. It counts as toxicity, cell-based.
The species named for data set [4] is Mus musculus. Put plainly: Cytotoxicity against Balb/c mouse B cells assessed as decrease in cell viability at 1 uM after 48 hrs by MTT assay. It counts as toxicity, cell-based.
The species entered for data set [5] is Mus musculus. In words: Cytotoxicity against Balb/c mouse B cells assessed as decrease in cell viability at 100 uM after 48 hrs by MTT assay. It counts as toxicity, cell-based.
The species named for data set [6] is Mus musculus. Put plainly: Cytotoxicity against Balb/c mouse T cells assessed as decrease in cell viability at 100 uM after 48 hrs by MTT assay. The data set is classed as toxicity, cell-based.
The nature of data set [7]: Immunosuppressive activity in Balb/c mouse B cells assessed as inhibition of LPS-induced cell proliferation at 10 uM after 48 hrs by MTT assay relative to control. The data set is classed as functional.
The species entered for data set [8] is Mus musculus. In words: Cytotoxicity against Balb/c mouse T cells assessed as decrease in cell viability at 1 uM after 48 hrs by MTT assay. The data set is classed as toxicity, cell-based.
Data set [9] is filed under the species Mus musculus. In words: Cytotoxicity against Balb/c mouse T cells assessed as decrease in cell viability at 10 uM after 48 hrs by MTT assay. The data set is classed as toxicity, cell-based.
Data set [10] in a line: Immunosuppressive activity in Balb/c mouse T cells assessed as inhibition of ConA-induced cell proliferation at 100 uM after 48 hrs by MTT assay relative to control. The data set is classed as functional.
The next data set concerns B. Put plainly: Immunosuppressive activity in Balb/c mouse B cells assessed as inhibition of LPS-induced cell proliferation after 48 hrs by MTT assay relative to control. The data set is classed as functional, cell-based.
Data set [11] is described as follows: Immunostimulatory activity in Balb/c mouse T cells assessed as induction of ConA-induced cell proliferation at 1 uM after 48 hrs by MTT assay relative to control. It counts as cell-based.
The nature of data set [12]: Immunosuppressive activity in Balb/c mouse B cells assessed as inhibition of LPS-induced cell proliferation at 100 uM after 48 hrs by MTT assay relative to control. It counts as functional.
The nature of data set [13]: Immunostimulatory activity in Balb/c mouse T cells assessed as induction of ConA-induced cell proliferation at 10 uM after 48 hrs by MTT assay relative to control. The data set is classed as cell-based.
Data set [14] can be described thus: Immunosuppressive activity in Balb/c mouse T cells assessed as inhibition of ConA-induced cell proliferation at 1 uM after 48 hrs by MTT assay relative to control. The data set is classed as functional.
Data set [15] in a line: Immunosuppressive activity in Balb/c mouse B cells assessed as inhibition of LPS-induced cell proliferation at 1 uM after 48 hrs by MTT assay relative to control. It counts as functional.
Data set [16] is described as follows: Immunosuppressive activity in Balb/c mouse B cells assessed as inhibition of LPS-induced cell proliferation at 50 uM after 48 hrs by MTT assay relative to control. The data set is classed as functional.
Data set [17] is described as follows: Immunostimulatory activity in Balb/c mouse B cells assessed as induction of LPS-induced cell proliferation at 100 uM after 48 hrs by MTT assay relative to control. The data set is classed as cell-based.
Data set [18] can be described thus: Immunostimulatory activity in Balb/c mouse B cells assessed as induction of LPS-induced cell proliferation at 10 uM after 48 hrs by MTT assay relative to control. It counts as cell-based.

For the compound `CC(=O)Oc1cc(C)c2c(c1C)C[C@H]([C@@H](C)C(=O)OCc1cn(Cc3ccc(Br)cc3)nn1)CC2`, the inhibition at 10 µM in data set [1] was determined as 33.9%; in [7] it was 34.1%. In addition, the Activity is on record as 19.71% in data set [2]; “Toxic” in the data set filed under Mus musculus [3]; “Non-Toxic” in the data set listed under Mus musculus [4]; “Toxic” in the data set listed under Mus musculus [5]; “Toxic” in the data set listed under Mus musculus [6]; “Non-Toxic” in the data set filed under Mus musculus [8]. Further, the Activity result in the data set listed under Mus musculus [9] is listed as “Toxic”; in data set [11], 14.15%. Further, the inhibition result in the data set on T-cell and with B was “Dose-dependent effect” throughout. The inhibition at 100 µM in data set [10] was 37.4%; in data set [12] it was 38.7%.
For `CC(=O)Oc1cc(C)c2c(c1C)C[C@H]([C@@H](C)C(=O)OCc1cn(-c3ccc4c(c3)OCO4)nn1)CC2`, the Activity in data set [13] is listed as 16.66%; in the data set filed under Mus musculus [3], “Toxic”; in the data set filed under Mus musculus [4] it was “Non-Toxic”; in the data set listed under Mus musculus [5], “Non-Toxic”; in the data set filed under Mus musculus [6], “Non-Toxic”; in the data set listed under Mus musculus [8], “Non-Toxic”. Also, the Activity entry in the data set listed under Mus musculus [9] is “Toxic”. For the same compound, the inhibition entry with T-cell and with B was “Dose-dependent effect” throughout. For the same compound, the figures for the inhibition at 1 µM in [14] and in data set [15] were 27.8% and 40.6%, respectively. Moreover, the inhibition at 10 µM in [7] came out at 33.9%. Besides, the inhibition at 100 µM in data set [10] was 32.4%; in data set [12], 22.3%.
Consider `CC(=O)Oc1cc(C)c2c(c1C)C[C@H]([C@@H](C)C(=O)O)CC2`, for which the values for the inhibition at 10 µM in [1] and in data set [7] were 52.3% and 57.2%, respectively. Also, the inhibition result in the data set with T-cell and in the data set on B was “Dose-dependent effect” throughout. Also, the Activity result in the data set listed under Mus musculus [3] was “Toxic”; in the data set filed under Mus musculus [4], “Toxic”; in the data set filed under Mus musculus [5] it was “Non-Toxic”; in the data set listed under Mus musculus [6], “Non-Toxic”; in the data set filed under Mus musculus [8], “Toxic”; in the data set listed under Mus musculus [9], “Toxic”. Moreover, the results for the inhibition at 1 µM in [14] and in [15] were 31.8% and 58.8%, respectively. Further, in data set [16], the inhibition at 50 µM came out at 75%. For the same compound, the inhibition at 100 µM in [10] is 75%; in data set [12], 71.8%.
As for `CC(=O)Oc1cc(C)c2c(c1C)C[C@H]([C@@H](C)C(=O)OCc1cn(-c3cccc(C#N)c3)nn1)CC2`, the inhibition at 10 µM in [1] is 25.9%. Also, the Activity in data set [2] was 8%; in the data set listed under Mus musculus [3], “Non-Toxic”; in data set [17], 37.71%; in the data set filed under Mus musculus [4] it was “Toxic”; in the data set filed under Mus musculus [5], “Toxic”; in the data set filed under Mus musculus [6] it was “Toxic”. Moreover, the figures for the Activity result (in the data set filed under Mus musculus [8]; in the data set listed under Mus musculus [9]; in data set [18]) were “Toxic”, “Non-Toxic” and 42.28%, respectively. Further, in [14], the inhibition at 1 µM is 20.4%. In data set [10], the inhibition at 100 µM was 45.4%.
Consider `CC1=C2[C@H]3OC(=O)[C@@H](C)[C@@H]3CC[C@@]2(C)C=CC1=O` [SANTONIN], for which the Activity in [13] is 3.66%; in the data set listed under Mus musculus [3], “Non-Toxic”; in the data set listed under Mus musculus [4], “Non-Toxic”; in the data set filed under Mus musculus [5], “Non-Toxic”; in the data set listed under Mus musculus [6] it was “Non-Toxic”; in the data set listed under Mus musculus [8], “Non-Toxic”. The Activity result in the data set listed under Mus musculus [9] is recorded as “Non-Toxic”. For the same compound, the inhibition entry with T-cell and in the data set on B was “Dose-dependent effect” in each case. Besides, the inhibition at 1 µM is 39.4% in data set [14] and 21.1% in [15]. For the same compound, the inhibition at 10 µM in [7] amounted to 26.8%. The inhibition at 100 µM came to 6.09% in [10] and 37.6% in data set [12].
Take `CC(=O)Oc1cc(C)c2c(c1C)C[C@H]([C@@H](C)C(=O)OCc1cn(-c3ccccc3C#N)nn1)CC2`: the inhibition at 10 µM in data set [1] was 4.62%; in [7], 26.3%. Also, the inhibition result in the data set with T-cell and in the data set on B was “Dose-dependent effect” in each case. The Activity entry in the data set listed under Mus musculus [3], in the data set listed under Mus musculus [4], in the data set listed under Mus musculus [5], in the data set filed under Mus musculus [6], in the data set listed under Mus musculus [8] and in the data set listed under Mus musculus [9] was “Toxic” in each case. Besides, in data set [11], the Activity was determined as 12.96%. In data set [15], the inhibition at 1 µM worked out at 40%. Also, the inhibition at 100 µM in data set [10] came out at 6.48%; in data set [12] it was 25.1%.
